The test system of series [1] is Alopecurus myosuroides (ALOMY). The series is described as follows: Pre-emergence herbicidal glasshouse test. Format: in vivo. Conditions: 250 g/Ha, evaluated after 13 days. From the text: (§1) Compounds are applied at 250 g/h. […] NT=not tested.
For series [2], the system named is Setaria faberi (SETFA). The series can be described thus: Pre-emergence herbicidal glasshouse test. Particulars: 250 g/Ha, evaluated after 13 days. Format: in vivo.
From the text: as §1

Series [3] relates to Lolium perenne (LOLPE). The series can be described thus: Pre-emergence herbicidal glasshouse test. Format: in vivo. Particulars: 250 g/Ha, evaluated after 13 days.
From the text: as §1

Series [4] relates to Echinochloa crus-galli (ECHCG). The series is described as follows: Pre-emergence herbicidal glasshouse test. In kind it is in vivo. Conditions: 250 g/Ha, evaluated after 13 days.
From the text: as §1

The subject of series [5] is Avena fatua (AVEFA). The series can be described thus: Pre-emergence herbicidal glasshouse test. Particulars: 250 g/Ha, evaluated after 13 days. In kind it is in vivo.
From the text: as §1

Series [6] has as its system Alopecurus myosuroides (ALOMY). The series can be described thus: Post-emergence herbicidal glasshouse test. In kind it is in vivo. Particulars: 250 g/Ha, evaluated after 13 days.
From the text: as §1

The test system of series [7] is Setaria faberi (SETFA). The series can be described thus: Post-emergence herbicidal glasshouse test. Format: in vivo. Particulars: 250 g/Ha, evaluated after 13 days.
From the text: as §1

Series [8] has as its system Lolium perenne (LOLPE). The series can be described thus: Post-emergence herbicidal glasshouse test. Format: in vivo. Particulars: 250 g/Ha, evaluated after 13 days.
From the text: as §1

Series [9] concerns Echinochloa crus-galli (ECHCG). The series is described as follows: Post-emergence herbicidal glasshouse test. Format: in vivo. Particulars: 250 g/Ha, evaluated after 13 days.
From the text: as §1

The subject of series [10] is Avena fatua (AVEFA). The series is described as follows: Post-emergence herbicidal glasshouse test. Format: in vivo. Conditions: 250 g/Ha, evaluated after 13 days.
From the text: as §1

Series [11] concerns wheat crop plants. The series is described as follows: Crop phytotoxicity comparison, post-emergence. Particulars: for damage to the wheat crop compared to prior art compound C1: summary of Table B3.
Series [12] has as its system barley crop plants. The series can be described thus: Crop phytotoxicity comparison, post-emergence. Conditions: for damage to the barley crop compared to prior art compound C1: summary of Table B3.
The mark [13] stands for this setting: rate 60 g/ha + safener cloquintocet-mexyl (CQC) at 50 g/ha.

Consider `CC#Cc1cc(C)c(C2C(=O)CC3(CCN(S(C)(=N)=O)CC3)CC2=O)c(C)c1` (stereo not drawn) [Compound A1, 9-(2,6-dimethyl-4-prop-1-ynyl-phenyl)-3-(methylsulfonimidoyl)-3-azaspiro[5.5]undecane-8,10-dione], for which the “percentage damage caused to the plant, ALOMY” value in series [1] and in series [6] was 5 (5=80-100%) throughout. Also, the “percentage damage caused to the plant, SETFA” value in series [2] and in series [7] was 5 (5=80-100%) throughout. Moreover, the “percentage damage caused to the plant, LOLPE” value in series [3] and in series [8] was 5 (5=80-100%) in each case. Besides, the “percentage damage caused to the plant, ECHCG” value in series [4] and in series [9] was 5 (5=80-100%) each time. For the same compound, the “percentage damage caused to the plant, AVEFA” value in series [5] and in series [10] was 5 (5=80-100%) in each case. Also, the “% phytotoxicity observed, Wheat” value in series [11] (rate 30 g/ha), in series [11] (rate 60 g/ha) and in series [11] (setting [13]) was 0% each time. Besides, in [11], the “damage to the wheat crop compared to prior art compound C1” value was “significantly less damaging”. Further, the “% phytotoxicity observed, Barley” value in series [12] (rate 30 g/ha) and in [12] (rate 60 g/ha) was 0% each time. In [12], the “damage to the barley crop compared to prior art compound C1” value is “significantly less damaging”.

Take `CC#Cc1cc(C)c(C2C(=O)CC3(CCN(S(=O)(=O)NC)CC3)CC2=O)c(C)c1` [Compound A3, 9-(2,6-dimethyl-4-prop-1-ynyl-phenyl)-N-methyl-8,10-dioxo-3-azaspiro[5.5]undecane-3-sulfonamide]: the “percentage damage caused to the plant, ALOMY” value in series [1] and in series [6] was 5 (5=80-100%) each time. For the same compound, the “percentage damage caused to the plant, SETFA” value in series [2] and in series [7] was 5 (5=80-100%) each time. Moreover, the “percentage damage caused to the plant, LOLPE” value in series [3] and in series [8] was 5 (5=80-100%) in each case. The “percentage damage caused to the plant, ECHCG” value in series [4] and in [9] was 5 (5=80-100%) throughout. Also, the “percentage damage caused to the plant, AVEFA” value in series [5] and in series [10] was 5 (5=80-100%) throughout. For the same compound, the “% phytotoxicity observed, Wheat” value in series [11] (rate 30 g/ha), in series [11] (rate 60 g/ha) and in series [11] (setting [13]) was 0% each time. Moreover, the “damage to the wheat crop compared to prior art compound C1” value in [11] is listed as “significantly less damaging”. For the same compound, the “% phytotoxicity observed, Barley” value in series [12] (rate 30 g/ha) and in series [12] (rate 60 g/ha) was 0% throughout. The “damage to the barley crop compared to prior art compound C1” value in series [12] was “significantly less damaging”.

Turning to `CC#Cc1cc(C)c(C2C(=O)CC3(CCOCC3)CC2=O)c(C)c1` [Compound C1, reference compound], the “% phytotoxicity observed, Wheat” value came out at 40% in series [11] (rate 30 g/ha), 70% in [11] (rate 60 g/ha) and 60% in series [11] (setting [13]). The “% phytotoxicity observed, Barley” value in [12] (rate 30 g/ha) is recorded as 80%; in series [12] (rate 60 g/ha), 90%.

With `CC#Cc1cc(C)c(C2=C(OC(=O)OC)CC3(CCN(S(=N)(=O)CC)CC3)CC2=O)c(C)c1` (stereo not drawn) [Compound P1], the “percentage damage caused to the plant, ALOMY” value in series [1] and in [6] was 5 (5=80-100%) each time. Also, the “percentage damage caused to the plant, SETFA” value in series [2] and in series [7] was 5 (5=80-100%) in each case. The “percentage damage caused to the plant, LOLPE” value in series [3] and in series [8] was 5 (5=80-100%) each time. For the same compound, the “percentage damage caused to the plant, ECHCG” value in [4] and in [9] was 5 (5=80-100%) in each case. The “percentage damage caused to the plant, AVEFA” value in series [5] and in [10] was 5 (5=80-100%) in each case.

As to `CC#Cc1cc(C)c(C2=C(OC(=O)OC)CC3(CCN(S(=O)(=O)NC)CC3)CC2=O)c(C)c1` [Compound P2, [9-(2,6-dimethyl-4-prop-1-ynyl-phenyl)-3-(methylsulfamoyl)-10-oxo-3-azaspiro[5.5]undec-8-en-8-yl] methyl carbonate], the “percentage damage caused to the plant, ALOMY” value in [1] and in series [6] was 5 (5=80-100%) each time. In addition, the “percentage damage caused to the plant, SETFA” value in [2] and in [7] was 5 (5=80-100%) in each case. Moreover, the “percentage damage caused to the plant, LOLPE” value in [3] and in series [8] was 5 (5=80-100%) throughout. The “percentage damage caused to the plant, ECHCG” value in series [4] and in [9] was 5 (5=80-100%) in each case. The “percentage damage caused to the plant, AVEFA” value in series [5] and in series [10] was 5 (5=80-100%) throughout.

On to `CC#Cc1cc(C)c(C2=C(OC(=O)OC)CC3(CCN(S(=O)(=O)N(C)C(=O)OC)CC3)CC2=O)c(C)c1` [Compound P4], for which the “percentage damage caused to the plant, ALOMY” value in series [1] and in series [6] was 5 (5=80-100%) each time. Also, the “percentage damage caused to the plant, SETFA” value in [2] and in series [7] was 5 (5=80-100%) throughout. Moreover, the “percentage damage caused to the plant, LOLPE” value in [3] and in series [8] was 5 (5=80-100%) in each case. The “percentage damage caused to the plant, ECHCG” value in series [4] and in [9] was 5 (5=80-100%) each time. Further, the “percentage damage caused to the plant, AVEFA” value in [5] and in series [10] was 5 (5=80-100%) in each case.

These data come from patent publication US12281081B2, “Herbicidal compounds” (SYNGENTA CROP PROTECTION AG, priority 2019, dated 2025).
